Patent US20140288074A1, “FUNGICIDAL PYRAZOLES” (E I DU PONT DE NEMOURS AND COMPANY, priority 2013, published 2014)

Experiments:
Septoria nodorum = assay: Test C: preventive spray on wheat seedlings, Septoria glume blotch, visual disease rating; assay type: in vivo; conditions: 200 ppm test suspension, Septoria nodorum inoculated the day after spraying; for pest or weed control at 200 ppm: Parastagonospora nodorum, 264 h
Experimental: General protocol for preparing test suspensions for Tests A-G: the test compounds were first dissolved in acetone in an amount equal to 3% of the final volume and then suspended at the desired concentration (in ppm) in acetone and purified water (50/50 mix by volume) containing 250 ppm of the surfactant Trem® 014 (polyhydric alcohol esters). The resulting test suspensions were then used in Tests A-G. Each test was conducted in triplicate, and the results were averaged. Spraying a 200 ppm test suspension to the point of run-off on the test plants was the equivalent of a rate of 800 g/ha. Unless otherwise indicated, the rating values indicate a 200 ppm test suspension was used. (An asterisk “*” next to the rating value indicates a 40 ppm test suspension was used.) The test suspension was sprayed to the point of run-off on wheat seedlings. The following day the seedlings were inoculated with a spore suspension of Septoria nodorum (the causal agent of Septoria glume blotch) and incubated in a saturated atmosphere at 24° C. for 48 h, and then moved to a growth chamber at 20° C. for 9 days, after which time visual disease ratings were made. Results for Tests A-G are given in Table A. In the Table, a rating of 100 indicates 100% disease control and a rating of 0 indicates no disease control (relative to the controls). A hyphen (-) indicates no test results.

Septoria tritici = assay: Test D: preventive spray on wheat seedlings, wheat leaf blotch, visual disease rating; assay type: in vivo; conditions: 200 ppm test suspension, Septoria tritici inoculated the day after spraying; for pest or weed control at 200 ppm: Zymoseptoria tritici, 504 h
Experimental: General protocol for preparing test suspensions for Tests A-G: the test compounds were first dissolved in acetone in an amount equal to 3% of the final volume and then suspended at the desired concentration (in ppm) in acetone and purified water (50/50 mix by volume) containing 250 ppm of the surfactant Trem® 014 (polyhydric alcohol esters). The resulting test suspensions were then used in Tests A-G. Each test was conducted in triplicate, and the results were averaged. Spraying a 200 ppm test suspension to the point of run-off on the test plants was the equivalent of a rate of 800 g/ha. Unless otherwise indicated, the rating values indicate a 200 ppm test suspension was used. (An asterisk “*” next to the rating value indicates a 40 ppm test suspension was used.) The test suspension was sprayed to the point of run-off on wheat seedlings. The following day the seedlings were inoculated with a spore suspension of Septoria tritici (the causal agent of wheat leaf blotch) and incubated in saturated atmosphere at 24° C. for 48 h. and then the seedlings were moved to a growth chamber at 20° C. for 19 additional days, after which time visual disease ratings were made. Results for Tests A-G are given in Table A. In the Table, a rating of 100 indicates 100% disease control and a rating of 0 indicates no disease control (relative to the controls). A hyphen (-) indicates no test results.

[1] = test system: Blumeria graminis f. sp. tritici; assay: Test G: preventive spray on wheat seedlings, wheat powdery mildew, visual disease rating;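 for all read-outs here: rated 8 days after spore dust inoculation at 20 °C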; assay type: in vivo; conditions: 200 ppm test suspension, Blumeria graminis f. sp. tritici inoculated the day after spraying; for pest or weed control at 200 ppm: 192 h
Experimental: General protocol for preparing test suspensions for Tests A-G: the test compounds were first dissolved in acetone in an amount equal to 3% of the final volume and then suspended at the desired concentration (in ppm) in acetone and purified water (50/50 mix by volume) containing 250 ppm of the surfactant Trem® 014 (polyhydric alcohol esters). The resulting test suspensions were then used in Tests A-G. Each test was conducted in triplicate, and the results were averaged. Spraying a 200 ppm test suspension to the point of run-off on the test plants was the equivalent of a rate of 800 g/ha. Unless otherwise indicated, the rating values indicate a 200 ppm test suspension was used. (An asterisk “*” next to the rating value indicates a 40 ppm test suspension was used.) The test suspension was sprayed to the point of run-off on wheat seedlings. The following day the seedlings were inoculated with a spore dust of Blumeria graminis f. sp. tritici (also known as Erysiphe graminis f. sp. tritici, the causal agent of wheat powdery mildew) and incubated in a growth chamber at 20° C. for 8 days, after which time visual disease ratings were made. Results for Tests A-G are given in Table A. In the Table, a rating of 100 indicates 100% disease control and a rating of 0 indicates no disease control (relative to the controls). A hyphen (-) indicates no test results.

[2] = test system: Puccinia recondita f. sp. tritici; assay: Test E: spray after inoculation of wheat seedlings, wheat leaf rust, visual disease rating; assay type: in vivo; conditions: 200 ppm test suspension, sprayed after inoculation with Puccinia recondita f. sp. tritici
Experimental: General protocol for preparing test suspensions for Tests A-G: the test compounds were first dissolved in acetone in an amount equal to 3% of the final volume and then suspended at the desired concentration (in ppm) in acetone and purified water (50/50 mix by volume) containing 250 ppm of the surfactant Trem® 014 (polyhydric alcohol esters). The resulting test suspensions were then used in Tests A-G. Each test was conducted in triplicate, and the results were averaged. Spraying a 200 ppm test suspension to the point of run-off on the test plants was the equivalent of a rate of 800 g/ha. Unless otherwise indicated, the rating values indicate a 200 ppm test suspension was used. (An asterisk “*” next to the rating value indicates a 40 ppm test suspension was used.) Wheat seedlings were inoculated with a spore suspension of Puccinia recondita f. sp. tritici (the causal agent of wheat leaf rust) and incubated in a saturated atmosphere at 20° C. for 24 h, and then moved to a growth chamber at 20° C. for 2 days. At the end of this time the, the test suspension was sprayed to the point of run-off on the wheat seedlings, and then the seedlings were moved back to the growth chamber at 20° C. for 4 days. Upon removal, visual disease ratings were made. Results for Tests A-G are given in Table A. In the Table, a rating of 100 indicates 100% disease control and a rating of 0 indicates no disease control (relative to the controls). A hyphen (-) indicates no test results.

Alternaria solani = assay: Test B: preventive spray on tomato seedlings, tomato early blight, visual disease rating; assay type: in vivo; conditions: 200 ppm test suspension, Alternaria solani inoculated the day after spraying
Experimental: General protocol for preparing test suspensions for Tests A-G: the test compounds were first dissolved in acetone in an amount equal to 3% of the final volume and then suspended at the desired concentration (in ppm) in acetone and purified water (50/50 mix by volume) containing 250 ppm of the surfactant Trem® 014 (polyhydric alcohol esters). The resulting test suspensions were then used in Tests A-G. Each test was conducted in triplicate, and the results were averaged. Spraying a 200 ppm test suspension to the point of run-off on the test plants was the equivalent of a rate of 800 g/ha. Unless otherwise indicated, the rating values indicate a 200 ppm test suspension was used. (An asterisk “*” next to the rating value indicates a 40 ppm test suspension was used.) The test suspension was sprayed to the point of run-off on tomato seedlings. The following day the seedlings were inoculated with a spore suspension of Alternaria solani (the causal agent of tomato early blight) and incubated in a saturated atmosphere at 27° C. for 48 h, and then moved to a growth chamber at 20° C. for 5 days, after which time visual disease ratings were made. Results for Tests A-G are given in Table A. In the Table, a rating of 100 indicates 100% disease control and a rating of 0 indicates no disease control (relative to the controls). A hyphen (-) indicates no test results.

[3] = test system: Puccinia recondita f. sp. tritici; assay: Test F: preventive spray on wheat seedlings, wheat leaf rust, visual disease rating; assay type: in vivo; conditions: 200 ppm test suspension, Puccinia recondita f. sp. tritici inoculated the day after spraying; for pest or weed control at 200 ppm: 168 h
Experimental: General protocol for preparing test suspensions for Tests A-G: the test compounds were first dissolved in acetone in an amount equal to 3% of the final volume and then suspended at the desired concentration (in ppm) in acetone and purified water (50/50 mix by volume) containing 250 ppm of the surfactant Trem® 014 (polyhydric alcohol esters). The resulting test suspensions were then used in Tests A-G. Each test was conducted in triplicate, and the results were averaged. Spraying a 200 ppm test suspension to the point of run-off on the test plants was the equivalent of a rate of 800 g/ha. Unless otherwise indicated, the rating values indicate a 200 ppm test suspension was used. (An asterisk “*” next to the rating value indicates a 40 ppm test suspension was used.) The test suspension was sprayed to the point of run-off on wheat seedlings. The following day the seedlings were inoculated with a spore suspension of Puccinia recondita f. sp. tritici (the causal agent of wheat leaf rust) and incubated in a saturated atmosphere at 20° C. for 24 h, and then moved to a growth chamber at 20° C. for 6 days, after which time visual disease ratings were made. Results for Tests A-G are given in Table A. In the Table, a rating of 100 indicates 100% disease control and a rating of 0 indicates no disease control (relative to the controls). A hyphen (-) indicates no test results.

Botrytis cinerea = assay: Test A: preventive spray on tomato seedlings, tomato Botrytis, visual disease rating; assay type: in vivo; conditions: 120 h, 200 ppm test suspension, Botrytis cinerea inoculated the day after spraying
Experimental: General protocol for preparing test suspensions for Tests A-G: the test compounds were first dissolved in acetone in an amount equal to 3% of the final volume and then suspended at the desired concentration (in ppm) in acetone and purified water (50/50 mix by volume) containing 250 ppm of the surfactant Trem® 014 (polyhydric alcohol esters). The resulting test suspensions were then used in Tests A-G. Each test was conducted in triplicate, and the results were averaged. Spraying a 200 ppm test suspension to the point of run-off on the test plants was the equivalent of a rate of 800 g/ha. Unless otherwise indicated, the rating values indicate a 200 ppm test suspension was used. (An asterisk “*” next to the rating value indicates a 40 ppm test suspension was used.) The test suspension was sprayed to the point of run-off on tomato seedlings. The following day the seedlings were inoculated with a spore suspension of Botrytis cinerea (the causal agent of tomato Botrytis) and incubated in saturated atmosphere at 20° C. for 48 h, and then moved to a growth chamber at 24° C. for 3 additional days, after which time visual disease ratings were made. Results for Tests A-G are given in Table A. In the Table, a rating of 100 indicates 100% disease control and a rating of 0 indicates no disease control (relative to the controls). A hyphen (-) indicates no test results.

Compound	pest or weed control at 200 ppm (Septoria nodorum)	pest or weed control at 200 ppm (Septoria tritici)	pest or weed control at 200 ppm [1]	Test E rating (disease control) [2]	Test B rating (disease control) (Alternaria solani)	pest or weed control at 200 ppm [3]	Test C rating (disease control) (Septoria nodorum)	Test D rating (disease control) (Septoria tritici)	Test G rating (disease control) [1]	Test F rating (disease control) [3]	pest or weed control at 200 ppm (Botrytis cinerea)	melting point
Cc1nn(C)c(C(O)C2CCCCC2)c1-c1c(F)cccc1Cl (stereo not drawn) [Compound 16, 4-(2-chloro-6-fluorophenyl)-α-cyclohexyl-1,3-dimethyl-1H-pyrazole-5-methanol]	0%	100%	100%	0%	89%	79%						
CC=C(C)C(O)c1c(-c2c(F)cccc2Cl)c(C)nn1C (stereo not drawn) [Compound 17]				9%	58%		0%	72%	78%	74%		
CCC=C(C)C(O)c1c(-c2c(F)cccc2F)c(C)nn1C (stereo not drawn) [Compound 18]				9%	96%		0%	24%	60%	18%		
Cc1nn(C)c(N2CCC(C)CC2)c1-c1ccc(F)cc1Cl [Compound 42, 1-[4-(2-chloro-4-fluorophenyl)-1,3-dimethyl-1H-pyrazol-5-yl]-4-methylpiperidine]	0%	99%	0%			72%					0%	98 to 100 °C
